Entries after “also recorded” stand apart in the source; their conditions may differ.
Experiments:
[1] = test system: TEAD1; settings: thermal shift; cited from earlier work
[2] = test system: TEAD2; settings: thermal shift; cited from earlier work
[3] = test system: TEAD3; settings: thermal shift; cited from earlier work
[4] = test system: TEAD4; settings: thermal shift; cited from earlier work
[5] = test system: TEAD isoforms 1-4; settings: thermal shift data of Tang and Post; cited from earlier work
[6] = test system: TEAD isoforms 1-4; test: TEAD thermal shift assay (TSA), outcome in words; format: binding, human
Excerpt: (§1) Thermal shift assay (TSA) is a biophysical method to evaluate stability of proteins with change in temperature. The assay measures thermal denaturation temperature in varying conditions such as different drug concentration. For this example, fluorogenic dye was used that bind to unfolded proteins. SYPRO Orange binds non-specifically to hydrophobic surfaces, and water strongly quenches its fluorescence. When the protein unfolds, the exposed hydrophobic surfaces bind the dye, resulting in an increase in fluorescence by excluding water. Detergent micelles also bind the dye and increase background noise dramatically. Binding of small molecules to proteins leads to a stabilization against to thermal denaturation with the degree of thermal stabilization proportional to the strength of binding.
(§2) The study described in this example investigated the change in melting temperature (ΔTm) of TEAD isoforms 1-4 when treated with TEAD inhibitors.
(§3) Tris-HCL was dissolved in 5 mL of Cell culture grade water and allowed to dissolve completely. The pH was adjusted to 8 using NaOH. Additional assay buffer components were added in the order listed above. The buffer was mixed slowly.
(§4) Assay buffer was prepared according to the procedures outlined above and dispensed into test wells. Spyro orange was added to a concentration of 5× in the assay buffer, followed by test compound stock solution which was added to a concentration of 10 μM or 30 μM in the assay buffer.
(§5) The melt cycle was performed in Bio-RAD PCR instrument from 20-95° C. with ramp rate of 1° C./min.

[7] = test system: TEAD; settings: control compounds; cited from earlier work
[8] = target: TEAD2 (Homo sapiens, UniProt Q15562); test: TEAD thermal shift assay (TSA); format: binding
Sequence of TEAD2 (Homo sapiens, UniProt Q15562) (Q15562 whole entry): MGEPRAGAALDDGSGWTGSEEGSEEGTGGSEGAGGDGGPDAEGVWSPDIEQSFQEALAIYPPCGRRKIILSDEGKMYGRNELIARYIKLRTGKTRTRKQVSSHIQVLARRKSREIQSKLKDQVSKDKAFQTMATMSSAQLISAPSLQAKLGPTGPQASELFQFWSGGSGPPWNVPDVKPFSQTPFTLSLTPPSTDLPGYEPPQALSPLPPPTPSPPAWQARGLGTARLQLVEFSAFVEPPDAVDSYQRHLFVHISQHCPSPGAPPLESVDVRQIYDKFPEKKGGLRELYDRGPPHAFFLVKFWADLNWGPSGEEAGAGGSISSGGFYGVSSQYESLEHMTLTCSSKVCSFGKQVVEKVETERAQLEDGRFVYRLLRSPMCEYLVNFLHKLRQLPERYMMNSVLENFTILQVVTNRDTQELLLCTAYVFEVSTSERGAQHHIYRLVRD
Excerpt: as §1, §2, §3, §4, §5

[9] = target: TEAD4 (Homo sapiens, UniProt Q15561); test: TEAD thermal shift assay (TSA); format: binding
Sequence of TEAD4 (Homo sapiens, UniProt Q15561) (Q15561 whole entry): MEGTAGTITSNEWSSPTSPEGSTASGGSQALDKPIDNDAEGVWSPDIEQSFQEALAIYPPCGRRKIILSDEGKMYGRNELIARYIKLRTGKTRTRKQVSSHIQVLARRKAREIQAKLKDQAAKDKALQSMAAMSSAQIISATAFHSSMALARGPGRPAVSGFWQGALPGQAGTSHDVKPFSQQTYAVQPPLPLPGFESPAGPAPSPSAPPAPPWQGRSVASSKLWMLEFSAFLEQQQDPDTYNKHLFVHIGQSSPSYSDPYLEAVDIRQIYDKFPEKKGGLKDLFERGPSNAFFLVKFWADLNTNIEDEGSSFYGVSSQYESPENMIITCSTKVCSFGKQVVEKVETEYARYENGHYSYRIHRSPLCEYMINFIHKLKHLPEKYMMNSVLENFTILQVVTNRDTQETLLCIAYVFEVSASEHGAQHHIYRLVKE
Excerpt: as §1, §2, §3, §4, §5

[10] = target: TEAD1 (Homo sapiens, UniProt P28347); test: TEAD thermal shift assay (TSA); format: binding
Sequence of TEAD1 (Homo sapiens, UniProt P28347) (P28347 whole entry): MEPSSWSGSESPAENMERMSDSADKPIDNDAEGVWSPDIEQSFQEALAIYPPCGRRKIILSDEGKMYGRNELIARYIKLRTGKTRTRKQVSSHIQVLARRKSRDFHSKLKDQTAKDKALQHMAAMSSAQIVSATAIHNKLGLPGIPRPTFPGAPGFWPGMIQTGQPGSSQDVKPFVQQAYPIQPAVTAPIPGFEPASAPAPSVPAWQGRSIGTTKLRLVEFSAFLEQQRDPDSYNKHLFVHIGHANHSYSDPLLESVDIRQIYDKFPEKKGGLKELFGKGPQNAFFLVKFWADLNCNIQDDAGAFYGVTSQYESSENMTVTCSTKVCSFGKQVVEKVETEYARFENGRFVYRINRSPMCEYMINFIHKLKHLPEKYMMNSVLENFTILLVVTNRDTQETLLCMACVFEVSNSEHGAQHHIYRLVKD
Excerpt: as §1, §2, §3, §4, §5

[11] = target: TEAD3 (Homo sapiens, UniProt Q99594); test: TEAD thermal shift assay (TSA); format: binding
Sequence of TEAD3 (Homo sapiens, UniProt Q99594) (Q99594 whole entry): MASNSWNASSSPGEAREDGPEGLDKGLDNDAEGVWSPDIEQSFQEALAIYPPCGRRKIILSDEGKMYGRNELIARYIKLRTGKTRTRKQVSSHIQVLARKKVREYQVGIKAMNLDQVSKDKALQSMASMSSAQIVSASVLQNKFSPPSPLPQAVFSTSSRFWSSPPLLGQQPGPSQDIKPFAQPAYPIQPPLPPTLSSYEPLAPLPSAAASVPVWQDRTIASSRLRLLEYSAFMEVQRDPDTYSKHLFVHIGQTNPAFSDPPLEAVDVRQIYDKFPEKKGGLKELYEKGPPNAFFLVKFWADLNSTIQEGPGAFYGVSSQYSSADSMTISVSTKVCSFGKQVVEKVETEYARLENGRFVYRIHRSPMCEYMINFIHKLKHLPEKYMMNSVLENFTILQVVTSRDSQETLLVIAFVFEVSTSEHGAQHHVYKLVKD
Excerpt: as §1, §2, §3, §4, §5

[12] = test system: NCI-H226 cells; test: Proliferation and cell viability assay, Cell Titer One; format: cell-based, human; settings: Homo sapiens, NCI-H226, 144 h, Cell Titer One assay, 6 days
Method: (§6) Cell proliferation of a TEAD dependent NF2-null mesothelioma cell line, NCI-H226 was assayed using two different protocols. Results were confirmed in two different TEAD-non-dependent lung cancer cell lines, H23 and H28, were used as non-responsive controls, as indicated:
b) Cell Titer One (Promega, #G3582). The effect of the TEAD inhibitors disclosed herein on cell proliferation was also determined using the Promega Substrate Cell Titer Aqueous One Solution Reagent. The TEAD inhibitors were evaluated for the effects on cell proliferation responder (H226) and non-responder negative control cancer cell lines (CAMA1, H28), as well as non-transformed normal human cells (HUVEC, NHDF). Dissociated cells were resuspend in media (depending on cell line, either in DMEM, RPMI, or EMEM all with 10% FBS, with gentamicin as an antibiotic). Cells were seeded at 100 μL/well at 750 cells per well in 96-well plates and allowed to settle and attach. After an incubation of 24 hrs (37° C., 5% CO2, humidified incubator), 100 μL of test compound-containing media was added. A dilution series of 2000× concentrated stock of test compounds was prepared in DMSO, for final concentrations from 0.1 to 10,000 nM. After addition of test compound-containing media, cells were incubated for 6 days at 37° C., 5% CO2, humidified incubators). To measure cell density, 20 μL of Promega Substrate Cell Titer 96 Aqueous One Solution Reagent (Promega, #G3582) to each well was added according to the manufacturer's instructions. Plates were incubated at 37° C. for usually 3-8 hrs, to reach in the control cells (without compound) an OD of 1.5 at 490 nm. The OD was measured using Vmax [Molecular Devices] spectrophotometer plate reader. Media only-wells were used as background controls and cell densities normalized to DMSO vehicle control. EC50 were taken as the concentration achieving 50% of maximal growth inhibition.
(§7) For IC50 and EC50 data “A” indicates a value of less than 0.2 μM; the symbol “B” indicates a value in the range of from 0.2 μM up to 1 μM; and the symbol “C” indicates a value of greater than 1 μM. ND: no data.

[13] = test system: NCI-H23 cells; test: Proliferation and cell viability assay, CellTiter-Glo 2.0 (CTG); format: cell-based; settings: Homo sapiens, non-responder cell line, 144 hrs
Method: as §6
a) CellTiter-Glo® 2.0 (Promega #G9243). The effect of the TEAD inhibitors disclosed herein on cell proliferation was determined in TEAD1-genetically dependent cell line NCI-H226 (responder cell line) and TEAD-independent cell lines (NCI-H23, HEK293T), as non-responder, negative control. […] After 144 hrs of treatment, relative cell viability numbers were determined using the CellTiter-Glo 2.0 assay following the manufacturer's instructions. […] Luminescence was quantified using a CLARIOStar Plus multi-mode plate reader (BMG Labtech) in luminescence detection mode with the recommended settings (ultra-Glo pre-set: emission 545-50 nm with autofocus and enhanced dynamic range on). Relative cell density was expressed as a function of inhibitor concentration, with respect to DMSO-only control wells. Data where plotted using GraphPad Prism and IC50 values for the biological effect were calculated using the EC50 non-linear fit function using a sigmoidal, 4-parameter logistic, least squares fit with no constraints. […]

[14] = test system: NCI-H226 cells; test: as above; format: cell-based, human; settings: Homo sapiens, NCI-H226, responder cell line, 144 hrs
Method: as §6
a) CellTiter-Glo® 2.0 (Promega #G9243). The effect of the TEAD inhibitors disclosed herein on cell proliferation was determined in TEAD1-genetically dependent cell line NCI-H226 (responder cell line) and TEAD-independent cell lines (NCI-H23, HEK293T), as non-responder, negative control. Cells were seeded in 96-well plates (Thermo Scientific #167008) in growth media (RPMI-1640, Gibco #61870-010) for NCI-H226 and NCI-H23 or DMEM (Gibco #31966-021, HEK293T) with […] Heat Inactivated Fetal Bovine Serum (Gibco 10500-064) at 800 (NCI-H226 and HEK-293T) or 2000 (NCI-H23) cells per well at 37° C., […], humidified incubator; 24 hours later, fresh growth media containing test compound or DMSO vehicle was added and incubated with the cells for 144 hrs. TEAD inhibitor stocks were made at a 1000× fold excess in DMSO, and a dose response test compound dose range of 10,000 to 0.1 nM was used. Each treatment was carried out in triplicate. After 144 hrs of treatment, relative cell viability numbers were determined using the CellTiter-Glo 2.0 assay following the manufacturer's instructions. Test plates and CellTiter-Glo 2.0 reagent were allowed to equilibrate to room temperature. CellTiter-Glo 2.0 reagent was added at 1:1 reagent to media ratio to the 96-well cell plates, plates were placed on a plate shaker for 2 minutes and then incubated at room temperature for a further 10 minutes to allow complete cell lysis to occur. The mix was then transferred to white, 96-well luminometer assay plates (Greiner Bio One #655075). Luminescence was quantified using a CLARIOStar Plus multi-mode plate reader (BMG Labtech) in luminescence detection mode with the recommended settings (ultra-Glo pre-set: emission 545-50 nm with autofocus and enhanced dynamic range on). Relative cell density was expressed as a function of inhibitor concentration, with respect to DMSO-only control wells. Data where plotted using GraphPad Prism and IC50 values for the biological effect were calculated using the EC50 non-linear fit function using a sigmoidal, 4-parameter logistic, least squares fit with no constraints.
as §7

[15] = test system: SDM103T2 cells; test: SDM103T2 proliferation and cell viability assay (CTG); format: cell-based; settings: 144 hours
Method: SDM103T2 cells were trypsinised, counted and plated at 800 cells/well in 200 μl of growth media in 96 well flat bottom tissue culture treated plates. The plated cells were incubated overnight at 37° C., 5% CO2 before being treated with compounds in triplicate for each assay point. 50 μl of the serially diluted compound was added to each well giving a final DMSO concentration of 0.5% per well and a total volume of 250 μl per well. The treated cells were incubated for 144 hours (6 days) at 37° C., 5% CO2. Following compound treatment the remaining viable cells were detected using the Promega CellTiter-Glo 2.0 assay as follows: 150 μl of media was removed from each of the wells to be assayed and 100 μl of room temperature CellTiter-Glo 2.0 reagent was added. The plate was placed on an orbital shaker at 500 rpm at room temperature for 2 minutes, and then incubated without shaking for a further 10 minutes at room temperature. 150 μl of cell lysate was removed from each well and dispensed into a single well of a white opaque 96 well plate. Luminescence at 545 nm was read using a BMG CLARIOstar plate reader. The luminescent signal was directly proportional to number of viable cells, the percent of viable cells relative to the DMSO control was then calculated for each assay point. Percent viability relative to DMSO control was plotted against compound concentration and a curve fitted with non-linear regression in GraphPad Prism software. EC50 and absolute IC50 values were calculated using GraphPad Prism software as follows: For EC50 values a non-constrained four-parameter logistic curve fit was used (Sigmoidal, 4PL, X is concentration). For Absolute IC50 values the baseline was constrained to Y=0 and top at 100 (Absolute IC50, X is concentration). Area Under the Curve (AUC): Prism computes area-under-the-curve by the trapezoidal method. The analysis sees a fitted curve as simply a series of connected XY points. Prism simply computes the area under the “curve” defined by connecting the points by straight lines. The units of the AUC are the units of the Y axis times units of the X axis.
For EC50 data, the symbol “A” indicates a value of less than 0.2 μM; the symbol “B” indicates a value in the range of from 0.2 μM up to 1 μM; and the symbol “C” indicates a value of greater than 1 μM.

[16] = as reported by Tang et al.; cited from earlier work
[17] = test system: MSTO-211H xenograft; test: Mouse xenograft MSTO-211H tumors compared to prior art TEAD inhibitor; format: in vivo, BALB/c nude mice; settings: 7 days of treatment, PO BID, 3 mg/kg Compound 1-1
Method: This study evaluated the in vivo anti-tumor efficacy of test compounds in BALB/c nude mice for treatment of MSTO-211H xenograft of lung cancer.
The MSTO-211H tumor cells were maintained in vitro in RPMI 1640 medium supplemented with 10% Fetal bovine serum and 1% Antibiotic-Antimycotic at 37° C. in an atmosphere of 5% CO2 in air. The tumor cells were routinely subcultured twice weekly by trypsin-EDTA. The cells growing in an exponential growth phase were harvested and counted for tumor inoculation.
Each mouse was inoculated subcutaneously at the right flank with MSTO-211H tumor cells (10×10^6+50% matrigel/0.2 mL) for tumor development. Test subjects received vehicle (e.g., 0.5% CMC-Na+1% Tween80) beginning on day 7 after cell inoculation. […]
The major endpoint was to determine if the tumor growth could be delayed. Tumor size was measured twice a week in two dimensions using a caliper, and the volume was expressed in mm^3 using the formula: V=0.5 a×b^2 where a and b are the long and short diameters of the tumor, respectively. […]
Summary statistics, including mean and the standard error of the mean (SEM), were calculated for the tumor volume of each group at each time point. […]
One-tailed T test was performed to compare tumor volumes between two groups. All data were analyzed using GraphPad Prism 6.0. p<0.05 was considered to be statistically significant.

[18] = Ratio of Protein to Compound 1:1
[19] = Ratio of Protein to Compound 1:3

Compound: C[C@H](CO)NC(=O)c1ccc2c(Oc3ccc(C(F)(F)F)cc3)cccc2c1 [VT3989]
- TEAD1 ΔTm [1]: 11.6 °C
- TEAD2 ΔTm [2]: 8.8 °C
- TEAD3 ΔTm [3]: 8.5 °C
- TEAD4 ΔTm [4]: 4.6 °C
- TEAD isoform interaction / binding (in words) [5]: primarily interacts with TEAD1-3; also recorded: lower levels of binding to TEAD4
- selectivity over TEAD2 and 3 (in words) [5]: minimal selectivity over TEAD2 and 3

Compound: C[C@H](NC(=O)c1ccc2c(-c3ccc(C(F)(F)F)cc3)cccc2c1)c1cccc(N)n1 [Compound 1-4]
- thermal shift / TEAD binding (in words) [6]: thermal shifts for all four TEAD isoforms
- known TEAD inhibition (in words) [7]: pan-TEAD inhibitor
- TEAD2 ΔTm [8, 18]: 2.5 °C
- TEAD2 ΔTm [8, 19]: 11 °C
- TEAD4 ΔTm [9, 18]: 1.5 °C
- TEAD4 ΔTm [9, 19]: 11 °C
- TEAD1 ΔTm [10, 18]: 7.5 °C
- TEAD1 ΔTm [10, 19]: 11 °C
- TEAD3 ΔTm [11, 18]: 3 °C

Compound: Cn1cnc(-c2cc(C3(C)CCNC3=O)ccc2Nc2ccc(C(F)(F)F)cc2)c1 (racemic) [Compound 2, 3-methyl-3-(3-(1-methyl-1H-imidazol-4-yl)-4-((4-(trifluoromethyl)phenyl)amino)phenyl) pyrrolidin-2-one]
- IC50 [12]: < 0.2 µM
- IC50 [13]: > 1 µM
- EC50 [14]: < 0.2 µM

Compound: CNS(=O)(=O)c1ccc(Nc2ccc(C(F)(F)F)cc2)c(-c2cn(C)cn2)c1 [Compound 1-1]
- EC50 [15]: < 0.2 µM
- half-life (in words) [16]: long half-life
- thermal shift / TEAD binding (in words) [6]: pronounced thermal shift only for TEAD1
- change in tumor volume (in words) [17]: Tumor growth was observed
- known TEAD inhibition (in words) [7]: known strong TEAD1 and weak TEAD2 inhibitor
- TEAD2 ΔTm [8, 19]: 1 °C
- TEAD4 ΔTm [9, 19]: 1 °C
- TEAD3 ΔTm [11, 19]: 0 °C

Compound: Cc1nnc(-c2cc(C3(C)CCNC3=O)ccc2Nc2ccc(C(F)(F)F)cc2)o1 (racemic) [Compound 1, 3-methyl-3-(3-(5-methyl-1,3,4-oxadiazol-2-yl)-4-((4-(trifluoromethyl)phenyl)amino)phenyl) pyrrolidin-2-one]
- IC50 [12]: < 0.2 µM
- IC50 [13]: > 1 µM
- EC50 [14]: < 0.2 µM

Source: patent US20260317304A1, “TEAD INHIBITORS AND METHODS OF USE” (Sporos BioDiscovery, Inc., priority 2022, published 2026)
